Test results as given in patent publication US6111067A, “A-82846-type glycopeptide antibiotics” (Eli Lilly and Company, priority 1993, dated 2000).
Values after ≈ are worked out from the molar mass of the structure shown.

Experiments:
Staphylococcus aureus = assay: In vivo activity against experimentally-induced infection in mice (ED50); settings: mice infected with Staphylococcus aureus; subcutaneous doses 1 and 4 hours postinfection
Description: (§1) The formula 1 compounds have also shown in vivo antimicrobial activity against experimentally-induced infections in laboratory animals. When two doses of test compound were administered to mice experimentally infected with the test organism, the activity observed was measured as an ED50 value [effective dose in mg/kg to protect 50% of the test animals: see Warren Wick, et al., J. Bacteriol. 81, 233-235 (1961)]. ED50 values observed for illustrative compounds are given in Table III. | ^a mg/kg × 2; doses administered subcutaneously to mice 1 and 4 | hours postinfection

Streptococcus pneumoniae = assay: as above; settings: mice infected with Streptococcus pneumoniae; subcutaneous doses 1 and 4 hours postinfection
Description: as §1

Streptococcus pyogenes = assay: as above; settings: mice infected with Streptococcus pyogenes; subcutaneous doses 1 and 4 hours postinfection
Description: as §1

[1] = tested on: Streptococcus pneumoniae Park I; type: cell-based; settings: agar dilution
Description: (§2) The formula 1 compounds have in vitro and in vivo activity against Gram-positive pathogenic bacteria. The MIC's were determined by standard agar-dilution assays.

[2] = tested on: Staphylococcus aureus S13E; type: cell-based; settings: agar dilution
Description: as §2

[3] = tested on: Staphylococcus epidermidis 270; assay: In vitro antibacterial activity, agar-dilution MIC; type: cell-based
[4] = tested on: Streptococcus Group D X66; assay: In vitro antibacterial activity, agar-dilution MIC; type: cell-based
Description: as §2

[5] = tested on: Haemophilus influenzae C.L.; assay: In vitro antibacterial activity, agar-dilution MIC; type: cell-based; settings: ampicillin-sensitive strain, highest level tested 128 mcg/mL
Description: as §2

[6] = tested on: Staphylococcus aureus X1.1; assay: In vitro antibacterial activity, agar-dilution MIC; type: cell-based
Description: as §2

[7] = tested on: Streptococcus pyogenes C203; assay: In vitro antibacterial activity, agar-dilution MIC; type: cell-based
Description: as §2

Escherichia coli EC14 = assay: In vitro antibacterial activity, agar-dilution MIC; type: cell-based; settings: highest level tested 128 mcg/mL
Description: as §2

[8] = tested on: Staphylococcus aureus V41; assay: In vitro antibacterial activity, agar-dilution MIC; type: cell-based; settings: Staphylococcus aureus V41, penicillin-resistant strain
Description: as §2

[9] = tested on: Staphylococcus aureus X400; assay: In vitro antibacterial activity, agar-dilution MIC; type: cell-based; settings: Staphylococcus aureus X400, methicillin-resistant strain
Description: as §2

[10] = tested on: Haemophilus influenzae 76; assay: In vitro antibacterial activity, agar-dilution MIC; type: cell-based; settings: Haemophilus influenzae 76, ampicillin-resistant strain, highest level tested 128 mcg/mL
Description: as §2

[11] = tested on: Streptococcus Group D 2041; assay: In vitro antibacterial activity, agar-dilution MIC; type: cell-based
Description: as §2

[12] = tested on: Klebsiella pneumoniae X26; assay: In vitro antibacterial activity, agar-dilution MIC; type: cell-based; settings: highest level tested 128 mcg/mL
Description: as §2

[13] = tested on: Staphylococcus epidermidis 222; assay: In vitro antibacterial activity, agar-dilution MIC; type: cell-based
Description: as §2

SMILES | ED50 Value (Staphylococcus aureus) [mg/kg × 2] | ED50 Value (Streptococcus pneumoniae) [mg/kg × 2] | ED50 Value (Streptococcus pyogenes) [mg/kg × 2] | MIC [1] [µg/mL] | MIC [2] [µg/mL] | MIC [3] [µg/mL] | MIC [4] [µg/mL] | MIC [5] | MIC [6] [µg/mL] | MIC [7] [µg/mL] | MIC (Escherichia coli EC14) | MIC [8] [µg/mL] | MIC [9] [µg/mL] | MIC [10] | MIC [11] [µg/mL] | MIC [12] | MIC [13] [µg/mL]
CN[C@H](CC(C)C)C(=O)N[C@H]1C(=O)N[C@@H](CC(N)=O)C(=O)N[C@H]2C(=O)N[C@H]3C(=O)N[C@H](C(=O)N[C@H](C(=O)O)c4cc(O)cc(O)c4-c4cc3ccc4O)[C@H](O[C@H]3C[C@](C)(N)[C@@H](O)[C@H](C)O3)c3ccc(c(Cl)c3)Oc3cc2cc(c3O)Oc2ccc(cc2Cl)[C@H]1O [Compound 3b] | 0.50 | 0.30 | 0.40 | 0.25 (≈ 0.194 µM) | 0.125 (≈ 0.0971 µM) | 0.5 (≈ 0.388 µM) | 0.5 (≈ 0.388 µM) | 32 µg/mL (≈ 24.9 µM) | 0.125 (≈ 0.0971 µM) | 0.25 (≈ 0.194 µM) | -- (Not active at 128 mcg/mL, the highest level tested) | 0.25 (≈ 0.194 µM) | 0.5 (≈ 0.388 µM) | 64 µg/mL (≈ 49.7 µM) | 1 (≈ 0.777 µM) | -- (Not active at 128 mcg/mL, the highest level tested) | 0.25 (≈ 0.194 µM)
CNC(CC(C)C)C(=O)NC1C(=O)NC(CC(N)=O)C(=O)NC2C(=O)NC3C(=O)NC(C(=O)NC(C(=O)O)c4cc(O)cc(O)c4-c4cc3ccc4O)C(OC3CC(C)(N)C(O)C(C)O3)c3ccc(cc3)Oc3cc2cc(c3OC2OC(CO)C(O)C(O)C2O)Oc2ccc(cc2Cl)C1O (stereo not shown) [Compound 2a] | 2.97 | 2.04 | 3.54 | 1 (≈ 0.707 µM) | 0.5 (≈ 0.353 µM) | 1 (≈ 0.707 µM) | 1 (≈ 0.707 µM) | -- (Not active at 128 mcg/mL, the highest level tested) | 0.5 (≈ 0.353 µM) | 0.5 (≈ 0.353 µM) | -- (Not active at 128 mcg/mL, the highest level tested) | 1 (≈ 0.707 µM) | 1 (≈ 0.707 µM) | -- (Not active at 128 mcg/mL, the highest level tested) | 4 (≈ 2.83 µM) | -- (Not active at 128 mcg/mL, the highest level tested) | 1 (≈ 0.707 µM)
CN[C@H](CC(C)C)C(=O)N[C@H]1C(=O)N[C@@H](CC(N)=O)C(=O)N[C@H]2C(=O)N[C@H]3C(=O)N[C@H](C(=O)N[C@H](C(=O)O)c4cc(O)cc(O)c4-c4cc3ccc4O)[C@H](O)c3ccc(cc3)Oc3cc2cc(c3O)Oc2ccc(cc2Cl)[C@H]1O [Compound 2c] | – | – | – | 4 (≈ 3.61 µM) | 4 (≈ 3.61 µM) | 4 (≈ 3.61 µM) | 8 (≈ 7.21 µM) | -- (Not active at 128 mcg/mL, the highest level tested) | 4 (≈ 3.61 µM) | 4 (≈ 3.61 µM) | -- (Not active at 128 mcg/mL, the highest level tested) | 4 (≈ 3.61 µM) | 8 (≈ 7.21 µM) | -- (Not active at 128 mcg/mL, the highest level tested) | 16 (≈ 14.4 µM) | -- (Not active at 128 mcg/mL, the highest level tested) | 8 (≈ 7.21 µM)
CN[C@H](CC(C)C)C(=O)N[C@H]1C(=O)N[C@@H](CC(N)=O)C(=O)N[C@H]2C(=O)N[C@H]3C(=O)N[C@H](C(=O)N[C@H](C(=O)O)c4cc(O)cc(O)c4-c4cc3ccc4O)[C@H](O[C@H]3C[C@](C)(N)[C@@H](O)[C@H](C)O3)c3ccc(c(Cl)c3)Oc3cc2cc(c3O[C@@H]2O[C@H](CO)[C@@H](O)[C@H](O)[C@H]2O)Oc2ccc(cc2Cl)[C@H]1O [Compound 3a] | 0.54 | 0.34 | 0.70 | 0.25 (≈ 0.173 µM) | 0.25 (≈ 0.173 µM) | 1 (≈ 0.69 µM) | 0.5 (≈ 0.345 µM) | 64 µg/mL (≈ 44.2 µM) | 0.25 (≈ 0.173 µM) | 0.25 (≈ 0.173 µM) | -- (Not active at 128 mcg/mL, the highest level tested) | 0.25 (≈ 0.173 µM) | 0.5 (≈ 0.345 µM) | -- (Not active at 128 mcg/mL, the highest level tested) | 1 (≈ 0.69 µM) | -- (Not active at 128 mcg/mL, the highest level tested) | 0.5 (≈ 0.345 µM)
CN[C@H](CC(C)C)C(=O)N[C@H]1C(=O)N[C@@H](CC(N)=O)C(=O)N[C@H]2C(=O)N[C@H]3C(=O)N[C@H](C(=O)N[C@H](C(=O)O)c4cc(O)cc(O)c4-c4cc3ccc4O)[C@H](O[C@H]3C[C@](C)(N)[C@@H](O)[C@H](C)O3)c3ccc(cc3)Oc3cc2cc(c3O)Oc2ccc(cc2Cl)[C@H]1O [Compound 2b] | 3.06 | 3.74 | 3.54 | 1 (≈ 0.798 µM) | 1 (≈ 0.798 µM) | 2 (≈ 1.6 µM) | 1 (≈ 0.798 µM) | -- (Not active at 128 mcg/mL, the highest level tested) | 1 (≈ 0.798 µM) | 1 (≈ 0.798 µM) | -- (Not active at 128 mcg/mL, the highest level tested) | 1 (≈ 0.798 µM) | 1 (≈ 0.798 µM) | -- (Not active at 128 mcg/mL, the highest level tested) | 4 (≈ 3.19 µM) | -- (Not active at 128 mcg/mL, the highest level tested) | 2 (≈ 1.6 µM)
